From patent publication US12624034B2, “Non-covalent modifiers of AKT1 and uses thereof” (Terremoto Biosciences, Inc., priority 2023, dated 2026)
Read-outs that look alike come from different tables or passages of the source.

Tests used:
AKT1 WT = molecular target: T1, AKT1 WT (Homo sapiens, UniProt P31749); experiment: Live cell AKT1 WT target engagement by NanoBRET competitive probe displacement in HEK293 cells; format: binding; details: 2 h at 37° C., read-out: AKT1 WT IC50
T1 construct: expressed in transfected cells; host or cells: HEK293

AKT2 = molecular target: T2, AKT2 (Homo sapiens, UniProt P31751); experiment: Live cell AKT2 target engagement by NanoBRET competitive probe displacement in HEK293 cells; format: binding; details: 2 h at 37° C., read-out: AKT2 IC50
T2 construct: expressed in transfected cells; host or cells: HEK293

[1] = NanoBRET live cell target engagement, HEK293 cells
[2] = NanoBRET competitive probe displacement, live HEK293 cells

T1 sequence (P31749 whole entry): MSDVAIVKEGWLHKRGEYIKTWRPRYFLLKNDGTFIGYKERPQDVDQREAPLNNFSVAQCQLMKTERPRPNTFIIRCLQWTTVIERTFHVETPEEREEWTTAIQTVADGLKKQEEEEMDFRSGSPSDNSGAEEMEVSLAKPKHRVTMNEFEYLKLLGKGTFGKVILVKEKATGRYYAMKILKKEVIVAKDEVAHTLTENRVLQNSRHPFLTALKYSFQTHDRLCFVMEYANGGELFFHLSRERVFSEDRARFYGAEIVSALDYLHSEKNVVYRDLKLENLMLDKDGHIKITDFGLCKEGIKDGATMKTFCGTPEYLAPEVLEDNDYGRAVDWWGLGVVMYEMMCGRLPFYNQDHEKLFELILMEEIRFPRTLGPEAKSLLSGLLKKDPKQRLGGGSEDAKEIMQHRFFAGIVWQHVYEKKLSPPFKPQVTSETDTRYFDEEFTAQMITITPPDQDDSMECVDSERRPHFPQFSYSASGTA
T2 sequence (P31751 whole entry): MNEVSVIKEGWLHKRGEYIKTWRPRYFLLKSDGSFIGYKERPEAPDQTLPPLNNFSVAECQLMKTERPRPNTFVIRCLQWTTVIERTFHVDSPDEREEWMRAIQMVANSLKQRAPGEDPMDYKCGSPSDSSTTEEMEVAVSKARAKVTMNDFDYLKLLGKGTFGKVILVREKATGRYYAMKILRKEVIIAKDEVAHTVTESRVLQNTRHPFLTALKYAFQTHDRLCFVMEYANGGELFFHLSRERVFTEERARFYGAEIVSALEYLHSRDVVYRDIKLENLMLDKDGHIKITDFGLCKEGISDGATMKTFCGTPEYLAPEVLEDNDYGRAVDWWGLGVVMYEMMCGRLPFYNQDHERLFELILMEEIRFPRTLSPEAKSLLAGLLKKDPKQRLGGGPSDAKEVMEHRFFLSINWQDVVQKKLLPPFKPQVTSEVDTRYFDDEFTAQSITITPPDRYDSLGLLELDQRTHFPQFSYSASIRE

IC50 (AKT1 WT; [1])	IC50 (AKT2; [1])	IC50 (AKT1 WT; [2])	IC50 (AKT2; [2])	SMILES
0.00561 µM	0.103 µM			Cc1ncc(C(=O)N[C@H]2CCc3cc(-n4c(-c5cccnc5N)nc5ccc(-n6cccn6)nc54)ccc32)s1 [Compound 120]
		0.00992 µM	0.198 µM	Nc1ncccc1-c1nc2ccc(-n3nccn3)nc2n1-c1ccc2c(c1)CC[C@@H]2NC(=O)c1cnc(C2CC2)s1 [Compound 520]
		0.0969 µM	8.94 µM	Nc1ncccc1-c1nc2ccc(C#CC3CC3)nc2n1-c1ccc2c(c1)CC[C@@H]2NC1CN(C(=O)C2CC2)C1 [Compound 506]
0.704 µM	9.91 µM			Nc1ncccc1-c1nc2ccc(-n3cccn3)nc2n1-c1ccc2c(c1)CC[C@@H]2NC(=O)[C@@H]1CCO1 [Compound 373]
0.0135 µM	0.284 µM			Nc1ncccc1-c1nc2ccc(-n3cccn3)nc2n1-c1ccc2c(c1)CC[C@@H]2NC(=O)c1cncc(OC(F)(F)F)c1 [Compound 138]
0.0112 µM	0.109 µM			C#Cc1cc(C(=O)N[C@H]2CCc3cc(-n4c(-c5cccnc5N)nc5ccc(-n6cccn6)nc54)ccc32)ccn1 [Compound 105]
		0.209 µM	> 10 µM	Nc1ncccc1-c1nc2ccc(-n3cccn3)nc2n1-c1ccc2c(c1)CC[C@@H]2NC1CCN(C(=O)[C@H]2CC2(F)F)CC1 [Compound 476]
0.07 µM	3.22 µM			Nc1ncccc1-c1nc2ccc(-n3cccn3)nc2n1-c1ccc2c(c1)CC[C@@H]2NC(=O)c1cc2n(n1)CCO2 [Compound 242]
0.0228 µM	0.111 µM			Nc1ncccc1-c1nc2ccc(-n3cccn3)nc2n1-c1ccc2c(c1)CC[C@@H]2NC(=O)c1ccnc2c1CCC2 [Compound 235]
		0.0144 µM	2.1 µM	Cc1ccc(C(=O)N[C@H]2CCc3cc(-n4c(-c5ccccc5)nc5ccc(-n6cccn6)nc54)ccc32)cn1 [Compound 400]
0.0908 µM	3.16 µM			Nc1ncccc1-c1nc2ccc(-n3cccn3)nc2n1-c1ccc2c(c1)CC[C@@H]2NC(=O)c1nccnc1C(F)F [Compound 119]
		0.0274 µM	4.08 µM	N#Cc1cc(-n2nccn2)nc2c1nc(-c1cccnc1N)n2-c1ccc2c(c1)CC[C@@H]2NC(=O)c1ccc(C(F)F)nc1 [Compound 548]
0.00918 µM	0.12 µM			Nc1ncccc1-c1nc2ccc(-n3cccn3)nc2n1-c1ccc2c(c1)CC[C@@H]2NC(=O)c1ccc(Cl)cc1 [Compound 263]
0.075 µM	8.23 µM			Cc1cnc(-c2ccc3nc(-c4cccnc4N)n(-c4ccc5c(c4)CC[C@@H]5NC(=O)c4nccnc4C)c3n2)s1 [Compound 243, (S)—N-(5-(2-(2-aminopyridin-3-yl)-5-(5-methylthiazol-2-yl)-3H-imidazo[4,5-b]pyridin-3-yl)-2,3-dihydro-1H-inden-1-yl)-3-methylpyrazine-2-carboxamide]
0.12 µM	4.29 µM			Nc1ncccc1-c1nc2ccc(-n3cccn3)nc2n1-c1ccc2c(c1)CCC2n1cccn1 (stereo not shown) [Compound 325, 3-(3-(1-(1H-pyrazol-1-yl)-2,3-dihydro-1H-inden-5-yl)-5-(1H-pyrazol-1-yl)-3H-imidazo[4,5-b]pyridin-2-yl)pyridin-2-amine]
		0.0785 µM	1.49 µM	Nc1ncccc1-c1nc2ccc(-n3cccn3)nc2n1-c1ccc2c(c1)CC[C@@H]2NC1CC2(CCN(c3ccccn3)C2)C1 (stereo partly drawn) [Compound 447, N-[(1S)-5-[2-(2-aminopyridin-3-yl)-5-(pyrazol-1-yl)imidazo[4,5-b]pyridin-3-yl]-2,3-dihydro-1H-inden-1-yl]-6-(pyridin-2-yl)-6-azaspiro[3.4]octan-2-amine]
0.0247 µM	0.987 µM			Cc1ccc(C(=O)N[C@H]2CCc3cc(-n4c(-c5cccnc5N)nc5ccc(-n6cncn6)nc54)ccc32)cn1 [Compound 346]
		0.043 µM	0.62 µM	Nc1ncccc1-c1nc2ccc(-n3cccn3)nc2n1-c1ccc2c(c1)CC[C@@H]2NC1CCc2cc(O)ccc21 (stereo partly shown) [Compound 498]
0.0389 µM	0.328 µM			Cc1nncn1[C@H]1CCc2cc(-n3c(-c4cccnc4N)nc4ccc(-n5cccn5)nc43)ccc21 [Compound 217, (S)-3-(3-(1-(3-methyl-4H-1,2,4-triazol-4-yl)-2,3-dihydro-1H-inden-5-yl)-5-(1H-pyrazol-1-yl)-3H-imidazo[4,5-b]pyridin-2-yl)pyridin-2-amine]
		0.0484 µM	1.74 µM	COc1ccn(-c2ccc3nc(-c4cccnc4N)n(-c4ccc5c(c4)CC[C@@H]5NC4[C@@H]5COC[C@H]4CN(C(=O)C4CC4)C5)c3n2)n1 (single isomer, unassigned) [Compound 523]
0.00494 µM	0.0348 µM			Nc1ncccc1-c1nc2ccc(-c3ccn(C(F)F)n3)nc2n1-c1ccc2c(c1)CC[C@@H]2NC(=O)c1ccc(C(F)F)nc1 [Compound 74]
		0.0934 µM	1.13 µM	Nc1ncccc1-c1nc2ccc(-n3cccn3)nc2n1-c1ccc2c(c1)CC[C@@H]2N[C@@H]1CCN(c2ccccc2)C1 [Compound 469]

IC50 (AKT1 WT; [1])	IC50 (AKT2; [1])	IC50 (AKT1 WT; [2])	IC50 (AKT2; [2])	SMILES
		0.00143 µM	0.034 µM	Cc1cc(C(=O)N[C@H]2CCc3cc(-n4c(-c5cccnc5N)nc5ccc(-n6cccn6)nc54)ccc32)cc(C(F)(F)F)c1O [Compound 416]
0.00774 µM	0.0829 µM			CC#Cc1cc(C(=O)N[C@H]2CCc3cc(-n4c(-c5cccnc5N)nc5ccc(-n6cccn6)nc54)ccc32)ccn1 [Compound 171, (S)—N-(5-(2-(2-aminopyridin-3-yl)-5-(1H-pyrazol-1-yl)-3H-imidazo[4,5-b]pyridin-3-yl)-2,3-dihydro-1H-inden-1-yl)-2-(prop-1-yn-1-yl)isonicotinamide]
		0.0774 µM	0.808 µM	CC(C)(O)c1ccn(-c2ccc3nc(-c4cccnc4N)n(-c4ccc5c(c4)CC[C@@H]5NC4CCN(C(=O)C5CC5)CC4)c3n2)n1 [Compound 569]
0.00954 µM	0.0864 µM			Nc1ncccc1-c1nc2ccc(-n3cccn3)nc2n1-c1ccc2c(c1)CC[C@@H]2NC(=O)c1cnc2[nH]ncc2c1 [Compound 192]
0.0682 µM	6.26 µM			Nc1ncccc1-c1nc2ccc(-n3cccn3)nc2n1-c1ccc2c(c1)CC[C@@H]2n1cc(C2COC2)nn1 [Compound 220]
0.391 µM	2.85 µM			Cc1ccc(C(=O)N[C@H]2CCc3cc(-n4c(-c5cccnc5N)nc5ccc(C#Cc6ncco6)nc54)ccc32)cn1 [Compound 341]
		0.0576 µM	0.973 µM	COc1ccn(-c2ccc3nc(-c4cccnc4N)n(-c4ccc5c(c4)CC(F)[C@@H]5NC4CN(C(=O)C5CC5)C4)c3n2)n1 (stereo partly shown) [Compound 493]
		0.0251 µM	1.07 µM	CCOc1ccn(-c2ccc3nc(-c4cccnc4N)n(-c4ccc5c(c4)CC[C@@H]5NC4CCN(C(=O)C5CC5)CC4)c3n2)n1 [Compound 486]
		0.0335 µM	1.33 µM	Nc1ncccc1-c1nc2ccc(-n3ccc(OC(F)F)n3)nc2n1-c1ccc2c(c1)CC(F)[C@@H]2NC1CCN(C(=O)C2CC2)CC1 (stereo partly shown) [Compound 525]
		0.019 µM	0.028 µM	Nc1ncccc1-c1nc2ccc(-n3cccn3)nc2n1-c1ccc2c(c1)CC[C@@H]2NC1CCc2cnccc21 (stereo partly shown) [Compound 473]
0.149 µM	1.9 µM			Nc1ncccc1-c1nc2ccc(-n3cccn3)nc2n1-c1ccc2c(c1)CC[C@@H]2N1CCC1 [Compound 87, (S)-3-(3-(1-(azetidin-1-yl)-2,3-dihydro-1H-inden-5-yl)-5-(1H-pyrazol-1-yl)-3H-imidazo[4,5-b]pyridin-2-yl)pyridin-2-amine]
		0.0204 µM	0.903 µM	Nc1ncccc1-c1nc2ccc(C#CC3CC3)nc2n1-c1ccc2c(c1)CC[C@@H]2NC(=O)c1ccc(C(F)F)nc1 [Compound 406]
		0.00613 µM	0.0201 µM	Cc1ccc(C(=O)N[C@H]2CCc3cc(-n4c(-c5cccnc5N)nc5ccc(-c6nc(C(F)F)cs6)nc54)ccc32)cn1 [Compound 403]
		0.0523 µM	0.715 µM	COc1ncn(-c2ccc3nc(-c4cccnc4N)n(-c4ccc5c(c4)CC[C@@H]5NC(=O)c4ccc(C)nc4)c3n2)n1 [Compound 456, (S)—N-(5-(2-(2-aminopyridin-3-yl)-5-(3-methoxy-1H-1,2,4-triazol-1-yl)-3H-imidazo[4,5-b]pyridin-3-yl)-2,3-dihydro-1H-inden-1-yl)-6-methylnicotinamide]
0.0029 µM	0.0222 µM			COc1cc(C(=O)N[C@H]2CCc3cc(-n4c(-c5cccnc5N)nc5ccc(-n6cccn6)nc54)ccc32)cnn1 [Compound 377]
0.021 µM	0.537 µM			C#Cc1ncccc1C(=O)N[C@H]1CCc2cc(-n3c(-c4cccnc4N)nc4ccc(-n5cccn5)nc43)ccc21 [Compound 113]
0.131 µM	1.73 µM			Nc1ncccc1-c1nc2ccc(-n3cccn3)nc2n1-c1ccc2c(c1)CC[C@@H]2NC(=O)c1ccnc2c1OC(F)(F)O2 [Compound 317]
0.0896 µM	5.85 µM			Cc1ncccc1S(=O)(=O)N[C@H]1CCc2cc(-n3c(-c4cccnc4N)nc4ccc(-n5cccn5)nc43)ccc21 [Compound 139]
		0.018 µM	0.404 µM	Nc1ncccc1-c1nc2ccc(-n3cccn3)nc2n1-c1ccc2c(c1)CC[C@@H]2NC1CCN(c2cccnc2)C1 (stereo partly shown) [Compound 472]
0.0696 µM	1.38 µM			Nc1ncccc1-c1nc2ccc(-n3cccn3)nc2n1-c1ccc2c(c1)CC[C@@H]2NC(=O)c1ccnn1C(F)F [Compound 170]
		0.0428 µM	> 10 µM	Nc1ncccc1-c1nc2ccc(-n3ccc(C4CCOCC4)n3)nc2n1-c1ccc2c(c1)CC[C@@H]2NC1CCN(C(=O)C2CC2)CC1 [Compound 487]
		0.0254 µM	1.28 µM	Nc1ncccc1-c1nc2ccc(-n3ccc(NC4CC4)n3)nc2n1-c1ccc2c(c1)CC[C@@H]2NC1CCN(C(=O)C2CC2)CC1 [Compound 599]
